Structures can show the parent of a compound that is named as a salt. Where two headings read alike, the source gives them in different places.
System: Canine Purkinje fiber
Test: In vitro electro-physiological screen using canine Purkinje fibers (action potential characteristics, microelectrode)
Type: cell-based
Conditions: for Emax at 10 µM / Emax at 100 µM / Emax at 30 µM: read-out: MaxAPD95: maximum observed effect on APD95 from control value; for EC10: read-out: C10 APD95: concentration of drug which causes a 10% increase or decrease (-) in APD95 from control value; for EC20: read-out: C20 APD95: concentration of drug which causes a 20% increase or decrease (-) in APD95 from control value; for inhibition at 100 µM: at 100 (concentration, μM); for Vmax: change in the rate of rise of phase 0 of the action potential from control value (in words): concentration not given, NE = no effect
Experimental: The primary method for evaluating these compounds as antiarrhythmic agents was an in vitro electro-physiological screen using canine Purkinje fibers. Using conventional microelectrode techniques the effects of the drugs on the action potential characteristics of the Purkinje fiber were measured. Both Class I and Class III antiarrhythmic agents can be disinguished using this method.

[1] = Canis lupus familiaris, purkinje, at 10 μM, basic cycle length 1000 milliseconds
[2] = Canis lupus familiaris, purkinje, at 10 (concentration, μM), read-out: Vmax: change in the rate of rise of phase 0 of the action potential from control value
[3] = Canis lupus familiaris, purkinje, normal stimulated beat, basic cycle length 1000 milliseconds, NR = not reached
[4] = Canis lupus familiaris, purkinje, basic cycle length 1000 milliseconds
[5] = Canis lupus familiaris, purkinje, read-out: Vmax: change in the rate of rise of phase 0 of the action potential from control value
[6] = normal stimulated beat, basic cycle length 1000 milliseconds, NR = not reached
[7] = Canis lupus familiaris, purkinje

Structure (SMILES)	Emax at 10 µM [1] [%]	EC10 [3] [µM]	EC20 [3] [µM]	other results
CCCCCCC[n+]1ccn(CCCCc2ccc(F)cc2)c1 [Compound I-19, 1-[4-(4-Fluorophenyl)butyl]-3-heptylimidazolium dihydrogenphosphate]	20	1	10	inhibition at 10 µM [2]: 6%
CS(=O)(=O)Nc1ccc(C(=O)Cn2ccnc2)cc1 [II-2, N-[4-(1H-Imidaz-1-ylacetyl)phenyl]methanesulfonamide]	–	3	14	Emax at 100 µM [4]: 67%; inhibition at 100 µM [5]: 15%
CS(=O)(=O)Nc1ccc(C(O)Cn2ccnc2)cc1 (stereo not shown) [II-4, N-[4-(1-Hydroxy-2-(1H-imidazol-1-yl)ethyl]phenyl]methanesulfonamide]	23	2	7	inhibition at 10 µM [2]: 15%
O=[N+]([O-])c1ccc(CCCCn2ccnc2)cc1 [II-1, 1-[4-(4-Nitrophenyl)butyl]imidazole hydrochloride]	27	1.2	4	–
CCCCCCC[n+]1ccn(CCCCc2ccc(Cl)cc2)c1 [Compound I-1, 1-[4-(4-Chlorophenyl)butyl]-3-heptylimidazolium chloride]	–	12	–	Emax at 30 µM (Canis lupus familiaris, purkinje, at 30 μM, basic cycle length 1000 milliseconds): 27%; inhibition at 15 µM (Canis lupus familiaris, purkinje, at 15 (concentration, μM), read-out: Vmax: change in the rate of rise of phase 0 of the action potential from control value): 20%
O=[N+]([O-])c1ccc(C(O)Cn2ccnc2)cc1 (stereo not drawn) [II-6, α-(4-Nitrophenyl)-1H-imidazole-1-ethanol]	–	15	43	Emax at 100 µM [4]: 28%
Cc1n(C)cc[n+]1CCCCc1ccc(NS(C)(=O)=O)cc1 [Compound I-30, 1,2-Dimethyl-3-[4-[4-[[methanesulfonyl]amino]phenyl]butyl]imidazolium methanesulfonate]	23	1	7	–
Cn1cc[n+](CCc2ccc(NS(C)(=O)=O)cc2)c1 [Compound I-43, 1-Methyl-3-[2-[4-((methylsulfonyl)amino)phenyl]ethyl]-1H-imidazolium iodide]	21	2	8	–
Nc1ccc(C(=O)Cn2ccnc2)cc1 [II-5, 1-(4-Aminophenyl)-2-(1H-imidazol-1-yl)ethanone]	13	4	–	Vmax: change in the rate of rise of phase 0 of the action potential from control value (in words): Minimal
O=[N+]([O-])c1ccc(CCn2ccnc2)cc1 [II-8, 1-[2-(4-Nitrophenyl)ethyl]-1H-imidazole hydrochloride]	–	7	30	Emax at 100 µM [4]: 29%; inhibition at 0.1 µM (Canis lupus familiaris, purkinje, at 0.1 (concentration, μM), read-out: Vmax: change in the rate of rise of phase 0 of the action potential from control value): 15%
CCCCCCCn1cc[n+](CCCCc2ccc(OC)cc2)c1.[Br-] [Compound I-7]	–	–	–	MaxAPD95: maximum observed effect on APD95 from control value (at 10 μM, basic cycle length 1000 milliseconds): 26%; Vmax: change in the rate of rise of phase 0 of the action potential from control value (at 10 (concentration, μM), 10 µM): -12%; EC10 [6]: 0.5 µM; EC20 [6]: 8 µM
C[n+]1ccn(CC(O)c2ccc(NS(C)(=O)=O)cc2)c1 (stereo not shown) [Compound I-38, 1-[2-Hydroxy-2-[4-[(methanesulfonyl)amino]phenyl]ethyl]-3-methylimidazolium iodide]	63	0.3	0.8	inhibition at 10 µM [2]: 5%
CCCCCCC[n+]1ccn(CCCCc2ccc(NC(C)=O)cc2)c1.Cc1ccc(S(=O)(=O)[O-])cc1 [Compound I-14, 1-[4-(4-(Acetylamino)phenyl)butyl]-3-heptylimidazolium 4-methylbenzenesulfonate]	–	–	–	EC10 [7]: 13 µM; EC20 [7]: 30 µM; Emax at 30 µM [7]: 21%; Vmax: change in the rate of rise of phase 0 of the action potential from control value (in words): increased
CCCCCCCn1cc[n+](CC(=O)c2ccc(NS(C)(=O)=O)cc2)c1 [Compound I-39, 1-Heptyl-3-[2-[4-[(methanesulfonyl)amino]phenyl]-2-oxoethyl]imidazolium br omide]	21	1.7	9	–
O=C(Cn1ccnc1)c1ccc([N+](=O)[O-])cc1 [II-3, 2-(1H-Imidaz-1-yl)-1-(4-nitrophenyl)ethanone hydrochloride]	–	20	50	Emax at 100 µM [4]: 29%
Cc1n(CCCCc2ccc(Cl)cc2)cc[n+]1C [Compound I-34, 1-[4-(4-Chlorophenyl)butyl]-2,3-dimethylimidazolium chloride]	25	1.4	6	–
CCCCC[n+]1ccn(CCCCc2ccc(Cl)cc2)c1 [Compound I-20, 1-[4-(4-Chlorophenyl)butyl]-3-pentylimidazolium dihydrogenphosphate]	23	0.8	6	–
CCC[n+]1ccn(CCCCc2ccc(Cl)cc2)c1.O=P([O-])(O)O [Compound I-16, 1-[4-(4-Chlorophenyl)butyl]-3-propylimidazolium dihydrogenphosphate]	11	6	–	Vmax: change in the rate of rise of phase 0 of the action potential from control value (at >10 (concentration, μM)): -20%
Cn1cc[n+](CC(=O)c2ccc(NS(C)(=O)=O)cc2)c1 [Compound I-44, 1-Methyl-3-[2-[4-((methylsulfonyl)amino)phenyl]-2-oxoethyl]-1H-imidazoliumbromide]	38	1	2.3	–
CCCCCCC[n+]1ccn(C(C)CCCc2ccc(Cl)cc2)c1 (stereo not shown) [Compound I-25, 1-[4-(4-Chlorophenyl)-1-methylbutyl]-3-heptylimidazolium 4-methylbenzenesulfonate]	–	–	–	EC10 [7]: 10 µM; Emax at 10 µM [7]: 10%
CS(=O)(=O)Nc1ccc(CCn2ccnc2)cc1 [II-7, N-[4-[2-(1H-Imidazol-1-yl)ethyl]phenyl]methanesulfonamide]	–	2	10	Emax at 100 µM [4]: 47%
CCCCCCC[n+]1ccn(CCC#Cc2ccc(Cl)cc2)c1 [Compound I-29, 1-[4-(4-Chlorophenyl)-3-butynyl]-3-heptylimidazolium 4-methylbenzenesulfonate]	–	–	–	EC10 [7]: 20 µM; Emax at 30 µM [7]: 15%; inhibition at 20 µM [5]: 20%
CCCCn1cc[n+](CCCCc2ccc(Cl)cc2)c1 [Compound I-21, 1-Butyl-3-[4-(4-chlorophenyl)butyl]imidazolium dihydrogenphosphate]	25	2	6	–
CCCCCCC[n+]1ccn(C/C=C\Cc2ccc(Cl)cc2)c1 [Compound I-42, (Z)-1-[4-(4-Chlorophenyl)-2-butenyl]-3-heptylimidazolium dihydrogenphosphate]	–	38	–	Emax at 100 µM [4]: 12%; inhibition at 100 µM [5]: 26%
CCCCCCCn1cc[n+](CCCCc2ccc(NS(C)(=O)=O)cc2)c1.O=P([O-])(O)O [Compound I-22, 1-Heptyl-3-[4-[4-[[(methyl)sulfonyl]amino]phenyl]butyl]imidazolium dihydrogenphosphate]	39	1.3	3	Vmax: change in the rate of rise of phase 0 of the action potential from control value (in words): Minimal

Reference: patent US4613609A, “Antiarrhythmic imidazoliums” (Schering A. G., priority 1984, dated 1986)
